Test results reported in patent US10501421B1, “Substituted benzimidazoles as modulators of Ras signaling” (VANDERBILT UNIVERSITY, priority 2017, dated 2019).
Counter-ions that a name gives are not always drawn. Like-named read-outs stand apart in the source and are kept apart here.

Columns and labels:
[1] = target: Ras GEF SOS (Son of Sevenless) (Homo sapiens, UniProt Q07889); test: SOS-mediated nucleotide exchange on Ras (BODIPY-GDP fluorescence); format: biochemical; settings: SOS-mediated exchange of BODIPY-GDP for GTP on Ras
Summary of the method: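 Ras loaded with BODIPY-GDP was mixed in buffer with test compound, then GTP and SOS. Fluorescence change from labeled GDP/GTP exchange was followed over time, and rates came from single-exponential fits. EC50 came from a four-parameter fit of mean rate against compound concentration.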

[2] = tested on: H727 lung cancer cell lines (G12V K-Ras mutation); test: Inhibition of cancer cell proliferation (CellTiter-Glo); format: cell-based; settings: Homo sapiens, NCI-H727, 72 h, read-out: Cell proliferation activity (H727 cancer cell line proliferation IC50)
Method: Compounds of the present invention were measured for their ability to kill H727 lung cancer cell lines, which contain a G12V K-Ras mutation. Cell proliferation experiments were conducted in 96-well plates. Cells were plated at 1000 cells/well, incubated overnight, followed by treatment with a dose range of compound for 3 days at 37° C. Cell proliferation was assessed using a CellTiter-Glo assay (Promega) according to the manufacturer's protocol. Data were normalized to DMSO control. IC50 values were determined using a four-parameter dose-response (variable slope) equation. These assays are performed in a manner analogous to the assay disclosed in: Burns, M. C.; Sun, Q.; Daniels, R. N.; Camper, D. V.; Kennedy, J. P.; Phan, J.; Olejniczak, E. O.; Lee, T.; Waterson, A. G.; Rossanese, O. W.; Fesik, S. W. “Approach for targeting Ras with small molecules that activate SOS-mediated nucleotide exchange” Proc. Natl. Acad. Sci. 2014; 11(9): 3401-3406. PMCID: PMC3948241.

Son of Sevenless (SOS) = target: T1, Son of Sevenless (SOS) (Homo sapiens, UniProt Q07889); test: Binding to SOS, fluorescence polarization anisotropy (FPA) probe displacement; settings: displacement of FITC-conjugated probe (Example 285), affinity calculated from IC50
T1 sequence (Q07889 564-1049 limits assumed): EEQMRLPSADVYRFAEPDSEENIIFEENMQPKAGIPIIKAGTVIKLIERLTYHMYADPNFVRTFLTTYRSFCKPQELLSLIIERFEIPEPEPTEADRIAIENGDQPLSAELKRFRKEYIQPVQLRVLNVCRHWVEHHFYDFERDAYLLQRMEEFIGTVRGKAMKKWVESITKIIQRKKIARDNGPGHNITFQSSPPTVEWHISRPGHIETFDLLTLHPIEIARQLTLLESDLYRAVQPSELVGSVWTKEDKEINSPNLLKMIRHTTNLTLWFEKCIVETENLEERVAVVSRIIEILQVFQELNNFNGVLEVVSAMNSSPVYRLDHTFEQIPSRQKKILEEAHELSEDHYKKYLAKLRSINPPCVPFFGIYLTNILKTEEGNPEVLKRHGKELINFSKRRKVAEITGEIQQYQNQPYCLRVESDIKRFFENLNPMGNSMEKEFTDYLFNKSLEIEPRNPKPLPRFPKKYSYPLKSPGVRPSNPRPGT
Summary of the method: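 A FITC-conjugated probe compound was incubated with SOS in buffer, and its displacement was tracked as a change in fluorescence anisotropy across a test-compound dose range. IC50 came from a four-parameter variable-slope fit, and binding affinity was calculated from it.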

[3] = H727 cells, 3 days treatment, CellTiter-Glo

Ras GEF SOS (Son of Sevenless), sequence (P01112 1-166 partner limits assumed, one chain of several): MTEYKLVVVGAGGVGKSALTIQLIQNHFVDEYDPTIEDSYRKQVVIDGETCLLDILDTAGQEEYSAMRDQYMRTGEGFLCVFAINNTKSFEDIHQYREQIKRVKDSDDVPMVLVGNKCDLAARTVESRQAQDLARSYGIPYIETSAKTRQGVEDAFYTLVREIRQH

IC50 [2, 3] [µM] | SMILES | EC50 [1] [µM] | IC50 [2] [µM] | Ki (Son of Sevenless (SOS)) [µM]
– | C=Cc1cc(Cn2c(N3CCNCC3)nc3cc(C)c(C)cc32)cc(C=C)c1F [Example 46, 1-(4-fluoro-3,5-divinylbenzyl)-5,6-dimethyl-2-(piperazin-1-yl)-1H-benzo[d]imidazole trifluoroacetate] | 5 to 30 | 1 to 5 | > 5
– | CCc1cc(Cn2c(N3CCNCC3)nc3cc(C)c(C)cc32)cc(Cl)c1F [Example 48, 1-(3-chloro-5-ethyl-4-fluorobenzyl)-5,6-dimethyl-2-(piperazin-1-yl)-1H-benzo[d]imidazole trifluoroacetate] | 1 to 5 | 1 to 5 | 1 to 5
– | CCc1cc(Cn2c(N3CCNCC3)nc3cc(C)c(C)cc32)cc(CC)c1F [Example 49, 1-(3,5-diethyl-4-fluorobenzyl)-5,6-dimethyl-2-(piperazin-1-yl)-1H-benzo[d]imidazole trifluoroacetate] | 1 to 5 | 1 to 5 | > 5
– | CCc1cc(Cn2c(N3CCNCC3)nc3cc(C)c(C)cc32)ccc1F [Example 50, 1-(3-ethyl-4-fluorobenzyl)-5,6-dimethyl-2-(piperazin-1-yl)-1H-benzo[d]imidazole trifluoroacetate] | 1 to 5 | 1 to 5 | > 5
– | Cc1cc2nc(N3CCNCC3)n(Cc3ccc(F)c(C4CC4)c3)c2cc1C [Example 51, 1-(3-cyclopropyl-4-fluorobenzyl)-5,6-dimethyl-2-(piperazin-1-yl)-1H-benzo[d]imidazole trifluoroacetate] | 5 to 30 | 1 to 5 | > 5
– | C=Cc1cc(Cn2c(N3CCNCC3)nc3cc(C)c(C)cc32)ccc1F [Example 52, 1-(4-fluoro-3-vinylbenzyl)-5,6-dimethyl-2-(piperazin-1-yl)-1H-benzo[d]imidazole trifluoroacetate] | 5 to 30 | > 20 | > 5
– | Fc1ccc(Cn2c(NCC3CNC3)nc3ccc(Cl)cc32)cc1Cl [Example 75, N-(azetidin-3-ylmethyl)-6-chloro-1-(3-chloro-4-fluorobenzyl)-1H-benzo[d]imidazol-2-amine trifluoroacetate] | 1 to 5 | 1 to 5 | 1 to 5
– | NCC1CN(c2nc3ccc(Cl)cc3n2Cc2ccc(F)c(Cl)c2)C1 [Example 76, (1-(6-chloro-1-(3-chloro-4-fluorobenzyl)-1H-benzo[d]imidazol-2-yl)azetidin-3-yl)methanamine trifluoroacetate] | < 1 | 1 to 5 | < 0.5
– | Fc1ccc(Cn2c(NC3CCNC3)nc3ccc(Cl)cc32)cc1Cl (stereo not shown) [Example 77, 6-chloro-1-(3-chloro-4-fluorobenzyl)-N-(pyrrolidin-3-yl)-1H-benzo[d]imidazol-2-amine trifluoroacetate] | < 1 | 1 to 5 | 0.5 to 1
– | COc1ccccc1-c1cccc2c1nc(N1CCNCC1)n2Cc1ccc(F)c(Cl)c1 [Example 81, 1-(3-chloro-4-fluorobenzyl)-4-(2-methoxyphenyl)-2-(piperazin-1-yl)-1H-benzo[d]imidazole trifluoroacetate] | 1 to 5 | 5 to 20 | 0.5 to 1
5 to 20 | Fc1ccc(Cn2c(N3CCNCC3)nc3c(-c4cccnc4)cccc32)cc1Cl [Example 89, 1-(3-chloro-4-fluorobenzyl)-2-(piperazin-1-yl)-4-(pyridin-3-yl)-1H-benzo[d]imidazole] | 1 to 5 | – | 1 to 5
1 to 5 | Cc1cc(-c2cccc3c2nc(N2CCNCC2)n3Cc2ccc(F)c(Cl)c2)n(C)n1 [Example 93, 1-(3-chloro-4-fluorobenzyl)-4-(1,3-dimethyl-1H-pyrazol-5-yl)-2-(piperazin-1-yl)-1H-benzo[d]imidazole] | 1 to 5 | – | 1 to 5
1 to 5 | CC(C)c1ccccc1-c1cccc2c1nc(N1CCNCC1)n2Cc1ccc(F)c(Cl)c1 [Example 94, 1-(3-chloro-4-fluorobenzyl)-4-(2-isopropylphenyl)-2-(piperazin-1-yl)-1H-benzo[d]imidazole] | 1 to 5 | – | 1 to 5
– | Cc1cc2c(nc(N3CCNCC3)n2Cc2ccc(F)c(Cl)c2)c(-c2ccccc2)c1C [Example 104, 1-(3-chloro-4-fluorobenzyl)-5,6-dimethyl-4-phenyl-2-(piperazin-1-yl)-1H-benzo[d]imidazole trifluoroacetate] | 1 to 5 | 1 to 5 | 1 to 5
– | Cc1cc2c(nc(N3CCNCC3)n2Cc2ccc(Cl)cc2)c(-c2ccccc2Cl)c1C [Example 106, 1-(4-chlorobenzyl)-4-(2-chlorophenyl)-5,6-dimethyl-2-(piperazin-1-yl)-1H-benzo[d]imidazole trifluoroacetate] | 1 to 5 | 1 to 5 | 1 to 5
– | Cc1cc2c(nc(N3CCNCC3)n2Cc2ccc(Cl)cc2)c(-c2ccccc2F)c1C [Example 107, 1-(4-chlorobenzyl)-4-(2-fluorophenyl)-5,6-dimethyl-2-(piperazin-1-yl)-1H-benzo[d]imidazole trifluoroacetate] | 1 to 5 | 5 to 20 | 1 to 5
– | Cc1cc2c(nc(N3CCNCC3)n2Cc2ccc(F)c(Cl)c2)c(-c2ccc(CN)cc2)c1C [Example 108, (4-(1-(3-chloro-4-fluorobenzyl)-5,6-dimethyl-2-(piperazin-1-yl)-1H-benzo[d]imidazol-4-yl)phenyl)methanamine trifluoroacetate] | < 1 | 1 to 5 | 0.5 to 1
– | C=C[C@H](N)c1cc(Cl)cc2c1nc(N1CCNCC1)n2Cc1cc(C)c(F)c(C)c1 [Example 155, (S)-1-(6-chloro-1-(4-fluoro-3,5-dimethylbenzyl)-2-(piperazin-1-yl)-1H-benzo[d]imidazol-4-yl)prop-2-en-1-amine trifluoroacetate] | < 1 | < 1 | –
– | CC[C@H](N)c1cc(Cl)cc2c1nc(N1CCNCC1)n2Cc1cc(C)c(F)c(C)c1 [Example 157, (S)-1-(6-chloro-1-(4-fluoro-3,5-dimethylbenzyl)-2-(piperazin-1-yl)-1H-benzo[d]imidazol-4-yl)propan-1-amine trifluoroacetate] | < 1 | 1 to 5 | –
– | CC[C@H](N)c1cc(Cl)cc2c1nc(NCCN)n2Cc1cc(C)c(F)c(C)c1 [Example 158, (S)—N^1-(4-(1-aminopropyl)-6-chloro-1-(4-fluoro-3,5-dimethylbenzyl)-1H-benzo[d]imidazol-2-yl)ethane-1,2-diamine trifluoroacetate] | 1 to 5 | 5 to 20 | –
> 20 | Cc1cc(Cn2c(NCCN)nc3c(Cl)nccc32)ccc1F [Example 223, N^1-(4-chloro-1-(4-fluoro-3-methylbenzyl)-1H-imidazo[4,5-c]pyridin-2-yl)ethane-1,2-diamine] | 5 to 30 | – | –
1 to 5 | Cc1cc(Cn2c(N3CCNCC3)nc3ccc(OC(C)C(F)(F)F)nc32)ccc1F (stereo not shown) [Example 258, 3-(4-fluoro-3-methylbenzyl)-2-(piperazin-1-yl)-5-((1,1,1-trifluoropropan-2-yl)oxy)-3H-imidazo[4,5-b]pyridine] | 5 to 30 | – | –
< 1 | Cc1cc(Cn2c(N3CCCC(N)C3)nc3ccc(OC(C)C(F)(F)F)nc32)ccc1F (stereo not shown) [Example 261, 1-(3-(4-fluoro-3-methylbenzyl)-5-((1,1,1-trifluoroprpan-2-yl)oxy)-3H-imidazo[4,5-b]pyridin-2-yl)piperidin-3-amine] | 30 to 100 | – | –
5 to 20 | Cc1cc(Cn2c(N3CC(CN)C3)nc3ccc(OCCN(C)C)nc32)ccc1F [Example 262, 2-((2-(3-(aminomethyl)azetidin-1-yl)-3-(4-fluoro-3-methylbenzyl)-3H-imidazo[4,5-b]pyridin-5-yl)oxy)-N,N-dimethylethan-1-amine] | 30 to 100 | – | –
5 to 20 | Cc1cc(Cn2c(NCC3CNC3)nc3ccc(OCCN(C)C)nc32)ccc1F [Example 263, N-(azetidin-3-ylmethyl)-5-(2-(dimethylamino)ethoxy)-3-(4-fluoro-3-methylbenzyl)-3H-imidazo[4,5-b]pyridin-2-amine] | 30 to 100 | – | –
